The source of these data is patent publication US20160279142A1, “COMBINATIONS OF A PHOSPHOINOSITIDE 3-KINASE INHIBITOR COMPOUND AND A CDK4/6 INHIBITOR COMPOUND FOR THE TREATMENT OF CANCER” (Genentech, Inc., priority 2015, published 2016).

Entries after “also recorded” stand apart in the source; their conditions may differ.

The test system of assay [1] is MCF-7 breast cancer xenografts. Description: In vivo tumor efficacy study, MCF-7 breast cancer xenografts. Conditions: MCF-7 xenograft mice; for CR: complete responses (100% tumor regression); for PR: partial responses (tumor regression >50% but <100%); for TTP 2X: time to progression 2X; for TTP 2X / AUC/Day % TGI (lower, upper): po qdx21; for AUC/Day % TGI (lower, upper): tumor growth inhibition vs vehicle; for Vol Day 21: tumor volume at day 21, po qdx21 (method b194 gives mm^3). The procedure:
The animals were fed ad libitum water (reverse osmosis, 1 ppm Cl) and NIH 31 Modified and Irradiated Lab Diet® consisting of 18.0% crude protein, 5.0% crude fat, and 5.0% crude fiber. The mice were housed on irradiated ALPHA-Dri® Bed-o'Cobs® Laboratory Animal Bedding in static microisolators on a 12-hour light cycle at 21-22° C. (70-72° F.) and 40-60% humidity. PRC specifically complies with the recommendations of the Guide for Care and Use of Laboratory Animals with respect to restraint, husbandry, surgical procedures, feed and fluid regulation, and veterinary care. The animal care and use program at PRC is accredited by the Association for Assessment and Accreditation of Laboratory Animal Care International (AAALAC), which assures compliance with accepted standards for the care and use of laboratory animals.
Xenografts were initiated with cancer cells, including breast cancer cell lines MCF-7 (Soule H. D. et al (1973) Jour. Nat. Cancer Inst. 51 (5): 1409-1416; Levenson A. S. et al (1997) Cancer Res. 57 (15): 3071-3078; LaCroix M. et al (2004) Breast Res. and Treatment 83 (3): 249-289) and MDA-MB-453 (Vranic S. et al (2011) Onc. Letters 2: 1131-1137; Hall R. E. et al (1994) Euro. Jour. Cancer 30(4):484-490). Cells were cultured in RPMI 1640 medium supplemented with 10% fetal bovine serum, 2 mM glutamine, 100 units/mL penicillin, […] streptomycin sulfate and 25 μg/mL gentamicin. The cells were harvested during exponential growth and resuspended in phosphate buffered saline (PBS) at a concentration of 5×10^6 or 10×10^6 cells/mL depending on the doubling time of the cell line. Tumor cells were implanted subcutaneously in the right flank, and tumor growth was monitored as the average size approached the target range of 100 to 150 mm3. Twenty-one days after tumor implantation, designated as Day 0 of the study, the mice were placed into four groups each consisting of ten mice with individual tumor volumes ranging from 75-172 mm3 and group mean tumor volumes from 120-121 mm3 (see Appendix A). Volume was calculated using the formula: […]
GDC-0032 was supplied as a dry powder in salt form, which contained 73% active agent, and was stored at room temperature protected from light. Drug doses were prepared weekly in 0.5% methylcellulose: 0.2% Tween 80 in deionized water (“Vehicle”) and stored at 4° C. The salt form containing 73% active agent was accounted for in the formulation of GDC-0032 doses. Doses of GDC-0032 were prepared on each day of dosing by diluting an aliquot of the stock with sterile saline (0.9% NaCl). All doses were formulated to deliver the stated mg/kg dosage in a volume of 0.2 mL per 20 grams of body weight (10 mL/kg).
All doses were scaled to the body weights of the individual animals and were provided by the route indicated in each of the figures.
Tumor volume was measured in 2 dimensions (length and width), using Ultra Cal IV calipers (Model 54 10 111; Fred V. Fowler Company), as follows: tumor volume (mm^3)=(length×width^2)×0.5 and analyzed using Excel version 11.2 (Microsoft Corporation). A linear mixed effect (LME) modeling approach was used to analyze the repeated measurement of tumor volumes from the same animals over time (Pinheiro, J. et al (2009); Tan, N. et al (2011) Clin. Cancer Res. 17(6):1394-1404). This approach addresses both repeated measurements and modest dropouts due to any non-treatment-related death of animals before study end. Cubic regression splines were used to fit a nonlinear profile to the time courses of log 2 tumor volume at each dose level. These nonlinear profiles were then related to dose within the mixed model. Tumor growth inhibition as a percentage of vehicle control (% TGI) was calculated as the percentage of the area under the fitted curve (AUC) for the respective dose group per day in relation to the vehicle, using the following formula: % TGI=100×(1−AUCdose/AUCveh). […]

Assay [2] relates to pAkt, pPRAS40, pS6RP, pRb, cleaved PARP in MDA-MB-453 tumors. Description: Protein levels (pharmacodynamic markers) in MDA-MB-453 tumors. The format is in vivo, mice. Conditions: for levels of pRB (ratio pRb to tRb): GDC-0032 5 mg/kg, palbociclib 50 mg/kg, 1 hr and 4 hr (FIG. 9d). The procedure: FIGS. 9a-d show ratios of protein levels of mice treated with vehicle, GDC-0032 at 5 mg/kg, palbociclib at 50 mg/kg, and the combination of GDC-0032 at 5 mg/kg+palbociclib at 50 mg/kg, measured at 1 hr and 4 hr.

The subject of assay [3] is MCF7×2.3.ARO.LetR letrozole-resistant breast cancer cells (Letrozole-R1). Description: CellTiter-Glo cell viability, letrozole-resistant MCF7x2.3.ARO.LetR. The format is cell-based. Conditions: letrozole-resistant MCF7 LetR (FIG. 1b, FIG. 4). The procedure: (§1) Cell culture. MCF7 cell line was obtained from the American Type Culture Collection (ATCC, VA). The cells were tested and authenticated using gene expression and single nucleotide polymorphism genotyping arrays (Hoeflich K P, et al (2009) Clin Cancer Res, 15(14):4649-4664; Hu X, et al (2009) Mol Cancer Res, 7(4):511-522) and cultured in RPMI supplemented with 10% fetal bovine serum, 100 units/ml penicillin, 100 µg/ml streptomycin, 2 mM L-glutamine and NEAA at 37° C. under 5% CO2. Stable aromatase-expressing MCF7 cells (MCF7-ARO) were generated by transfection of a plasmid vector containing the full aromatase gene and a neomycin selection gene. The cells were maintained in androstenedione and all experiments were performed in the presence of androstenedione except where indicated
(§2) The CellTiter-Glo® Luminescent Cell Viability Assay is a homogeneous method to determine the number of viable cells in culture based on quantitation of the ATP present, which signals the presence of metabolically active cells. […]
(§3) The assay assesses the ability of compounds to enter cells and inhibit cell proliferation. The assay principle is based on the determination of the number of viable cells present by quantitating the ATP present in a homogenous assay where addition of the Cell Titer-Glo® reagent results in cell lysis and generation of a luminescent signal through the luciferase reaction. […]
Cell viability assays. […] After 4 days incubation, relative numbers of viable cells were estimated using CellTiter-Glo (Promega, Madison, Wis.) and total luminescence was measured on an Envision plate Reader (PerkinElmer, Foster City, Calif.). […]
Cell viability assays and combination assays: Cells were seeded at 1000-2000 cells/well in 384-well plates for 16 h. […] After 4 days, relative numbers of viable cells were measured by luminescence using Cell Titer-Glo® (Promega) according to the manufacturer's instructions and read on a Wallac Multilabel Reader® (PerkinElmer, Foster City). EC50 values were calculated using Prism® 4.0 software (GraphPad, San Diego). […]
(Cellular ATP, detected with luciferase, serves as a proxy for viable cell number.)

Assay [4] relates to cyclin D1, cyclin E, phosphorylated Rb (Ser807/811) and cleaved PARP. Description: Western blot pathway signaling in MCF7-ARO parental and resistant lines. The assay is classed as cell-based. Conditions: 24 hours of treatment (FIG. 2). The procedure: Cells were treated for 24 hours with 20 nM GDC-0032 (Parental and Letrozole-R1) or 2.5 μM (Let-R1.GDC-0032-R) and/or 2.5 μM palbociclib.
Taselisib combines well with palbociclib in double-resistant MCF7-ARO cells (FIG. 1c). The effect on viability of taselisib and palbociclib as single agents is shown, respectively. The combination effect of the two drugs is indicated. Starting doses for taselisib were 80 nM for the parental and letrozole-R1 lines and 10 μM for […]. Palbociclib starting doses were 10 μM for all three lines (FIGS. 1a-c). Immunoblots from samples treated for 24 hours with 20 nM taselisib (Parental and Letrozole-R1) or 2.5 (Let-R1.taselisib-R). (D) Increased growth arrest is observed with combined PI3K and CDK4/6 inhibition. Immunoblots from samples treated for 24 hours with 20 nM taselisib (Parental and Letrozole-R1) or 2.5 μM (Let-R1. taselisib-R) and/or 2.5 μM palbociclib. Dotted lines for all viability data are indicative of CTG counts at the beginning of drug treatment. Error bars indicate standard deviation around the mean.
On the technique in general: In western blotting, separated proteins are transferred to a membrane and probed.

Assay [5] has as its system MCF7×2.3.CMV.ARO.LetR letrozole-resistant breast cancer cells. Description: CellTiter-Glo cell viability, MCF7x2.3.CMV.ARO.LetR. The format is cell-based. To be noted: dose titrations (FIG. 6). The procedure: as §1, §2, §3

With `Cc1nc(-c2cn3c(n2)-c2ccc(-c4cnn(C(C)(C)C(N)=O)c4)cc2OCC3)n(C(C)C)n1` [GDC-0032, 2-(4-(2-(1-isopropyl-3-methyl-1H-1,2,4-triazol-5-yl)-5,6-dihydrobenzo[f]imidazo[1,2-d][1,4]oxazepin-9-yl)-1H-pyrazol-1-yl)-2-methylpropanamide], in assay [1], the CR was 0; the PR was 0; the “TTP 2X” value came to 9.5; the “AUC/Day % TGI (lower, upper)” value is reported as 49 (16, 71) %. Moreover, the “Vol Day 21” value in assay [1] was determined as 349. The “levels of pAkt (ratio pAkt to tAkt)” value in assay [2] (5 mg/kg, 1 hr and 4 hr (FIG. 9a)) was “effectively decreased”. Also, in assay [2] (5 mg/kg, 1 hr and 4 hr (FIG. 9b)), the “levels of pPRAS40 (ratio pPRAS40 to tPRAS40)” value is “effectively decreased”. The “levels of pS6RP (ratio pS6RP to tS6RP)” value in assay [2] (5 mg/kg, 1 hr and 4 hr (FIG. 9c)) is listed as “effectively decreased”. Also, the “cell death based on cleaved PARP” value in assay [2] (5 mg/kg, 1 hr and 4 hr (FIG. 9e)) was “induced cell death”. For the same molecule, in assay [2], the “levels of pRB (ratio pRb to tRb)” value is “decreased”. Besides, the “cell viability (CellTiter-Glo)” value in assay [3] is on record as “potency remains; also recorded: equally sensitive”. Besides, the “cell viability (CellTiter-Glo)” value in assay [3] (listed as taselisib) is given as “similarly sensitive”. For the same molecule, in assay [4], the “PI3K pathway signaling (immunoblot)” value is given as “decreases” and the “cleaved PARP (immunoblot)” value is on record as “detected”. The “cell viability (CellTiter-Glo)” value in assay [5] was “potency remains”.

Regarding `CC(=O)c1c(C)c2cnc(Nc3ccc(N4CCNCC4)cn3)nc2n(C2CCCC2)c1=O` [palbociclib, 6-acetyl-8-cyclopentyl-5-methyl-2-(5-(piperazin-1-yl)pyridin-2-ylamino)pyrido[2,3-d]pyrimidin-7(8H)-one, reference compound], in assay [1], the CR is recorded as 0; the PR is reported as 0; the “TTP 2X” value is listed as 8.5; the “AUC/Day % TGI (lower, upper)” value was 39 (0, 63) %. Moreover, the “Vol Day 21” value in assay [1] is reported as 421. The “levels of pRB (ratio pRb to tRb)” value in assay [2] was “decreased”. Also, the “cell viability (CellTiter-Glo)” value in assay [3] is on record as “more resistant”.
